Data published in ChEMBL document CHEMBL3779836, “Inhibition of Histone Demethylases Offers a Novel and Promising Approach for the Treatment of Cancer and Other Diseases” (ACS Med Chem Lett, 2016).

What was measured:
[1] = target: T1, Lysine-specific demethylase 4C (Homo sapiens, UniProt Q9H3R0); experiment: Inhibition of human KDM4C preincubated for 10 mins followed by substrate addition by AlphaLISA assay
T1 sequence (Q9H3R0 whole entry): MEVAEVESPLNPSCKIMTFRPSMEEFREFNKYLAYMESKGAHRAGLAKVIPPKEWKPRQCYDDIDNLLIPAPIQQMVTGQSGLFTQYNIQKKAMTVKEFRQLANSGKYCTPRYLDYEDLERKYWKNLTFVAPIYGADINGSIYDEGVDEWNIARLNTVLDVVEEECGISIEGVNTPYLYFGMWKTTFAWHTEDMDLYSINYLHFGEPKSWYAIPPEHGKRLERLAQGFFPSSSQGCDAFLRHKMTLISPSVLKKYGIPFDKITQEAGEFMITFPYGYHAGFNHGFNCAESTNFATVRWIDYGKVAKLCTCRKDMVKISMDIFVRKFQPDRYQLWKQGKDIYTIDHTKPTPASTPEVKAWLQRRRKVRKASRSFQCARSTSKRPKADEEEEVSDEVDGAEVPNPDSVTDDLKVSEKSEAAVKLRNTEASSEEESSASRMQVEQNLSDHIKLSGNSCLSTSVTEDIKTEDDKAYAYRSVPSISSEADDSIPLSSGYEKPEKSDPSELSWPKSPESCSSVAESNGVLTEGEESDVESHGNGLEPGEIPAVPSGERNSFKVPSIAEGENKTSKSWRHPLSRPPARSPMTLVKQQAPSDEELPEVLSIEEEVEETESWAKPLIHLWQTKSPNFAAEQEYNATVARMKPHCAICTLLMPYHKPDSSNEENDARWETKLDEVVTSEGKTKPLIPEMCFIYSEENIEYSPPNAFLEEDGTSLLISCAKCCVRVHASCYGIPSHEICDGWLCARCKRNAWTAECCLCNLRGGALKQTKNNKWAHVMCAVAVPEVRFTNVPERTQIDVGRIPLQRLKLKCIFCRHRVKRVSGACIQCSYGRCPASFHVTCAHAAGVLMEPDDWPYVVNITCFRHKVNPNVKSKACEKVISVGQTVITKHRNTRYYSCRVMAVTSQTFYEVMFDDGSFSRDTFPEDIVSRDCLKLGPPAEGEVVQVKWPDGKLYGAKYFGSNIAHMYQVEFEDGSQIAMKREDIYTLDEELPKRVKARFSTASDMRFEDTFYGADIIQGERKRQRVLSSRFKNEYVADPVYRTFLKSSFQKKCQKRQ

[2] = target: T2, Lysine-specific demethylase 2B (Homo sapiens, UniProt Q8NHM5); experiment: Inhibition of human KDM2B preincubated for 10 mins followed by substrate addition by AlphaLISA assay
T2 sequence (Q8NHM5 whole entry): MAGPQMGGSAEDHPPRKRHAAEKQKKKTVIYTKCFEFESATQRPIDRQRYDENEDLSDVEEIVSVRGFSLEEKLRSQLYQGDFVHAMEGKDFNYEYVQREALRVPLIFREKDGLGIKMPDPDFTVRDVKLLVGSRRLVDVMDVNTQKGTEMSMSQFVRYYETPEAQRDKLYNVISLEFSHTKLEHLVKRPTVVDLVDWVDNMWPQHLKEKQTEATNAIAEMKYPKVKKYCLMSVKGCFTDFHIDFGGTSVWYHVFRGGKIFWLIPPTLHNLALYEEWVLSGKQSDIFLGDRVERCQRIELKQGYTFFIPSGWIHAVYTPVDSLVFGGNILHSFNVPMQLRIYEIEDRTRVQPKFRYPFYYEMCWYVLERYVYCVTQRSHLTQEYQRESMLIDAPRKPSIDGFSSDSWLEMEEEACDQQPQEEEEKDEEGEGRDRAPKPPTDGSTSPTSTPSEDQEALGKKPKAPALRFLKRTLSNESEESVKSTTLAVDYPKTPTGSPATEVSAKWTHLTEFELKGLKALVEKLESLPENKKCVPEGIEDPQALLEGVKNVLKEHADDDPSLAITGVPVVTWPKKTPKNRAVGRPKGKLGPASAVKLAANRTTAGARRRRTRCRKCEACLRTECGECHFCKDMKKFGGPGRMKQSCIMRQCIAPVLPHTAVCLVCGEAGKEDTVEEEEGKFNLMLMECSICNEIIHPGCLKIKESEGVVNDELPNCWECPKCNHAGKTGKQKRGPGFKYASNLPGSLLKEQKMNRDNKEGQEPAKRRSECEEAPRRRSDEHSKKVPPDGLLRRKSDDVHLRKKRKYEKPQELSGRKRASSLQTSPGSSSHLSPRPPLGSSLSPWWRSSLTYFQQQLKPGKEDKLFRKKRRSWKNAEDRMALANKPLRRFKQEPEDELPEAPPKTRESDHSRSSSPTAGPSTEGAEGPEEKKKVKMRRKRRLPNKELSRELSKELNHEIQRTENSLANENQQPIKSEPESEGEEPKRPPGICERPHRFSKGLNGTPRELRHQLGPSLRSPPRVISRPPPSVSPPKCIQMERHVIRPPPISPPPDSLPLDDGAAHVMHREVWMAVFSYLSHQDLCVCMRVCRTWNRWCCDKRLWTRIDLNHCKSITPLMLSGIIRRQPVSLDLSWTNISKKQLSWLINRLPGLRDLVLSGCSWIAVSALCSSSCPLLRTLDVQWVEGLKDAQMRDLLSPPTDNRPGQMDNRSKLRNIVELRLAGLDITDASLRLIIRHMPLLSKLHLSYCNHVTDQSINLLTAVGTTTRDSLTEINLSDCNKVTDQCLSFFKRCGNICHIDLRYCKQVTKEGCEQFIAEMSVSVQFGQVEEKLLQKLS

[3] = target: Histone lysine demethylase PHF8 (Homo sapiens, UniProt Q9UPP1); experiment: Inhibition of human PHF8 preincubated for 10 mins followed by substrate addition by AlphaLISA assay
Sequence of Histone lysine demethylase PHF8 (Q9UPP1 whole entry): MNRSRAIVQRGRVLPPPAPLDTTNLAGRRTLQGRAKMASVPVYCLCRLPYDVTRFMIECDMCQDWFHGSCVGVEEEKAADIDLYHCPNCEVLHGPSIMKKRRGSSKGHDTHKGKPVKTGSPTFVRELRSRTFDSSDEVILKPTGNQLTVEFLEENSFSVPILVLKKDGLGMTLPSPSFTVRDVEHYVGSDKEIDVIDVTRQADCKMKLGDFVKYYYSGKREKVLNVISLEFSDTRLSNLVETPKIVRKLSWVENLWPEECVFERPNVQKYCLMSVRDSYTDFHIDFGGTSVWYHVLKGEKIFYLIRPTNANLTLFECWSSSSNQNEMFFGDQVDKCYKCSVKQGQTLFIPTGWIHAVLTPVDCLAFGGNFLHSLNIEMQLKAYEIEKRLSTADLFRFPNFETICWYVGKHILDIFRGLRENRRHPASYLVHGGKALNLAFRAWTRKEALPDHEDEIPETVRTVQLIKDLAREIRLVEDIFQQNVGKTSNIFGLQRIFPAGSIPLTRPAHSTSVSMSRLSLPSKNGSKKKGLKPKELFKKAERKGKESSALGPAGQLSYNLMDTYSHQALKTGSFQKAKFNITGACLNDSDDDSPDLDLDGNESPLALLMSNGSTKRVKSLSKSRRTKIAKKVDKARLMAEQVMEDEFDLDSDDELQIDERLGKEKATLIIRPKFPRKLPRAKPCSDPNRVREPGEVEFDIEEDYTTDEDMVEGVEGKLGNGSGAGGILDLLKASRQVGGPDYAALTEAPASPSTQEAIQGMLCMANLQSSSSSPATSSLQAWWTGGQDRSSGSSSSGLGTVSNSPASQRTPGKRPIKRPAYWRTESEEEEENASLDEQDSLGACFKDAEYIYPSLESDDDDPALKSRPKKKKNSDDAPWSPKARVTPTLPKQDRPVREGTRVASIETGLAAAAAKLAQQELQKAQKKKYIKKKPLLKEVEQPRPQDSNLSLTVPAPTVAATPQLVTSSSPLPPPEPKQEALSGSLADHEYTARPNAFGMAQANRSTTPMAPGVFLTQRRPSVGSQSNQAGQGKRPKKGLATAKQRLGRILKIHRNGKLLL

[4] = target: Lysine-specific demethylase 6A (Homo sapiens, UniProt O15550); experiment: Inhibition of human KDM6A preincubated for 10 mins followed by substrate addition by AlphaLISA assay
Sequence of Lysine-specific demethylase 6A (O15550 whole entry): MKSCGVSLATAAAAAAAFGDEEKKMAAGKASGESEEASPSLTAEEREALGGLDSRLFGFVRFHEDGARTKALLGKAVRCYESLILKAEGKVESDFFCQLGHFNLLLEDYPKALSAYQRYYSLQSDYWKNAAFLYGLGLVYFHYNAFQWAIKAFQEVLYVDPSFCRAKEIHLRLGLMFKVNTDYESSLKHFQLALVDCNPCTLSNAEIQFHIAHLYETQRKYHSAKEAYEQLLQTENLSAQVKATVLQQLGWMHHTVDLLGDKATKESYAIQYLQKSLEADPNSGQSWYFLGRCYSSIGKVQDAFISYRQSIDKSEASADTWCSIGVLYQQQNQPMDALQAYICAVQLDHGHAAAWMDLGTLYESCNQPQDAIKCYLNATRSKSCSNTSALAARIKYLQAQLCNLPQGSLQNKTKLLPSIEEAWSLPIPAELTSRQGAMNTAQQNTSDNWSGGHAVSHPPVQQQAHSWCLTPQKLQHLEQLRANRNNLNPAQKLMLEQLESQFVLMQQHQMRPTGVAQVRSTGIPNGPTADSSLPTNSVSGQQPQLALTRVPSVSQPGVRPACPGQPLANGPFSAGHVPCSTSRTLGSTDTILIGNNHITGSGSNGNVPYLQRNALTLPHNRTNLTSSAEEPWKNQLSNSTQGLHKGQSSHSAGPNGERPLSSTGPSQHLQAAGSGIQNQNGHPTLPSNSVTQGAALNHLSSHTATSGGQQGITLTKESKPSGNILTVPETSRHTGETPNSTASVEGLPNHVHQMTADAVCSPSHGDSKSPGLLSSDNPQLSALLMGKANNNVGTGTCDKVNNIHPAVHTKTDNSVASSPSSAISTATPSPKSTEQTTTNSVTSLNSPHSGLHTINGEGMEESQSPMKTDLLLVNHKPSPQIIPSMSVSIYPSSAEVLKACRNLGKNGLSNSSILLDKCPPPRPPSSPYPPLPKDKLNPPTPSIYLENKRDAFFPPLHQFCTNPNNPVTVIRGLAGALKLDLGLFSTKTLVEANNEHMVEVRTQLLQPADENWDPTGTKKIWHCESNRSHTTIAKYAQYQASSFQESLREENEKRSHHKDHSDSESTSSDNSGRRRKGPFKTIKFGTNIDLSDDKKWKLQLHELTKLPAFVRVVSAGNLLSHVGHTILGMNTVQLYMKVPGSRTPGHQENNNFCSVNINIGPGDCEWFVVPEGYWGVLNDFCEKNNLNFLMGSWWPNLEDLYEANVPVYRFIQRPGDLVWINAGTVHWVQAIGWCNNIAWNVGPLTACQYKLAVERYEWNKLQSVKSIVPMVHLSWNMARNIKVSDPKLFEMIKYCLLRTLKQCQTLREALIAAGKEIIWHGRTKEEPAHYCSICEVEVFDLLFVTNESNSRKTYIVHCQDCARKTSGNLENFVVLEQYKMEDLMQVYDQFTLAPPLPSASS

[5] = target: Lysine-specific demethylase 5B (Homo sapiens, UniProt Q9UGL1); experiment: Inhibition of human KDM5B preincubated for 10 mins followed by substrate addition by AlphaLISA assay
Sequence of Lysine-specific demethylase 5B (Q9UGL1 whole entry): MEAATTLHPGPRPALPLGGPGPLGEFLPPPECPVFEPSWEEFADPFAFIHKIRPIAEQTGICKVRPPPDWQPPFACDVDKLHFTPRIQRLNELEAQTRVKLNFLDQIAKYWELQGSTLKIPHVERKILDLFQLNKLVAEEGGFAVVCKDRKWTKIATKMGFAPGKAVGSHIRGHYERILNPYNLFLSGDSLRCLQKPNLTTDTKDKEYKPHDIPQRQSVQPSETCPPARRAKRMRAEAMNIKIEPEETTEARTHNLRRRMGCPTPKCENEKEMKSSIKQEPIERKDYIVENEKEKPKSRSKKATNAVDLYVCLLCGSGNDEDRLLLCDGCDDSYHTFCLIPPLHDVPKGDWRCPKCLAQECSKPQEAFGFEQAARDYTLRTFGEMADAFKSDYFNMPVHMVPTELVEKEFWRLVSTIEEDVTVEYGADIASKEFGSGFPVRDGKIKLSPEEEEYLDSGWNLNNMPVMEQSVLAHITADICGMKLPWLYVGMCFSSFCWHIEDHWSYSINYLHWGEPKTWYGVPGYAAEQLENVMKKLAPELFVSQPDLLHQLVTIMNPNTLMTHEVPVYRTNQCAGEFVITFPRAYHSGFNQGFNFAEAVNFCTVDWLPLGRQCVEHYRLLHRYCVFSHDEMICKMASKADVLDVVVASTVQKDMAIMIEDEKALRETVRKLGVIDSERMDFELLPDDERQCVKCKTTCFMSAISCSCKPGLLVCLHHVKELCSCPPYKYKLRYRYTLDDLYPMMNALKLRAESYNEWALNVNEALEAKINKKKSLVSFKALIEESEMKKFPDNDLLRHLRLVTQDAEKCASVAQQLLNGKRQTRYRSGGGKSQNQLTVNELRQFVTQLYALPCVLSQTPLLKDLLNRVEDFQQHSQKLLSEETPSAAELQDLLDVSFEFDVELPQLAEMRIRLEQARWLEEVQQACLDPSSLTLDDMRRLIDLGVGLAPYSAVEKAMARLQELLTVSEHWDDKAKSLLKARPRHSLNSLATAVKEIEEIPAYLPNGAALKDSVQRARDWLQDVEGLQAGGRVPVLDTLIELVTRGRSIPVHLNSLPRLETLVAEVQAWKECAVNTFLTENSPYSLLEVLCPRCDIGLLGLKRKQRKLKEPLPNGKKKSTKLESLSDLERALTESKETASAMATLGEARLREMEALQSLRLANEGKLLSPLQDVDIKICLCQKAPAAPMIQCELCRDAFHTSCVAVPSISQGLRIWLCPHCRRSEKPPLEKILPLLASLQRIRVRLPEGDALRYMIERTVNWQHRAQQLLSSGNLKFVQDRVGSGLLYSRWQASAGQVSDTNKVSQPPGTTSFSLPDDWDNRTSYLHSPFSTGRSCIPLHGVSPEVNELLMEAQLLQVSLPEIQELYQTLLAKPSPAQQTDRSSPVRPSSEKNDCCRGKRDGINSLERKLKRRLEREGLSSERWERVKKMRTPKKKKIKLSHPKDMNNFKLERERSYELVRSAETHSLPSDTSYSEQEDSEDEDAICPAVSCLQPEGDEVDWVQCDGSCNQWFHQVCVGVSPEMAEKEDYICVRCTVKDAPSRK

Row | IC50 [1] | IC50 [2] | IC50 [3] | IC50 [4] | IC50 [5] | SMILES
1 | < 250 nM | > 2500 nM | < 250 nM | > 2500 nM | < 250 nM | Cc1cn2c(n1)CCN(Cc1cc(C(=O)O)ccn1)CC2
2 | < 250 nM | < 250 nM | < 250 nM | > 2500 nM | < 250 nM | C[C@H](c1ccccc1)N1CCC[C@H](CNCc2cc(C(=O)O)ccn2)C1=O
3 | < 250 nM | < 250 nM | < 250 nM | > 2500 nM | < 250 nM | C[C@H](c1ccccc1)N1CCC[C@@H](CNCc2cc(C(=O)O)ccn2)C1=O
4 | < 250 nM | < 250 nM | < 250 nM | > 2500 nM | < 250 nM | C[C@H](c1ccccc1)N1CC[C@@H](CNCc2cc(C(=O)O)ccn2)C1=O
5 | < 250 nM | < 250 nM | < 250 nM | > 2500 nM | < 250 nM | COc1ccc([C@@H](C)N2CCC[C@@H](CNCc3cc(C(=O)O)ccn3)C2=O)cc1
6 | < 250 nM | < 250 nM | < 250 nM | > 2500 nM | < 250 nM | CCN1CCC(CNCc2cc(C(=O)O)ccn2)C1=O (stereo not given)
